# From US20220243177A1, “METHODS OF CULTURING QUIESCENT HEMATOPOIETIC STEM CELLS AND TREATMENT METHODS” (priority 2019, published 2022)
# What was measured:
# [1] = tested on: MMP-low and MMP-high HSCs; test: Immunofluorescence staining and laser scanning confocal microscopy of treated HSCs; type: cell-based, mouse; settings: ConA 40 nM, 18 hours
# Protocol: Immunofluorescence Staining, Imaging, and Analysis—Laser Scanning Confocal Microscopy: FACS purified MMP-low and MMP-high HSCs (in average pooled from three mice) were seeded into retronectin-coated channel slides (Ibidi Cat# 80626) and fixed for 15 minutes with 10% formalin (1,000 cells). After washing with PBS, cells were permeabilized in PBS+0.25% Triton™ X-100 for 15 minutes and blocked for 1 hour in 3% BSA. Fixed and permeabilized cells were then incubated with primary antibodies (1:150) in PBS+1% BSA overnight at 4° C., washed and stained with fluorescence-conjugated secondary antibodies (1:1,000) for 1 hour at room temperature. Slides were sealed with mounting medium with DAPI. Images were captured using a Zeiss LSM880 Airyscan confocal microscope using a 100× objective (N.A. 1.46).
# For analysis by immunofluorescence staining, MMP-low and MMP-high HSCs were FACS-purified and incubated in StemSpan medium containing SCF (100 ng/ml) and TPO (20 ng/ml) for the indicated time with the indicated compounds at 37° C. in a humidified atmosphere with 5% CO2. After treatment, cells were processed for confocal imaging as described above.
# Fluorescence Intensity: Channel displaying the protein of interest were isolated and quantified on a per cell basis using the raw integrated density metric generated by the measure command. For nuclear intensity, DAPI thresholds were used to delimit the nucleus and mapped back onto the channel displaying the protein of interest to determine fluorescence intensity within the nucleus only.
# [2] = tested on: bone marrow lineage-negative cells; test: Lineage negative bone marrow cell culture, HSC frequency and MMP; type: cell-based, mouse; settings: ConA 100 nM
# Protocol: For measuring MMP and proliferation, lineage negative bone marrow (BM) cells were enriched with the EasySep Mouse hemato- poietic progenitor kit. Lineage negative (1 3 106) cells (isolated separately from four mice) were seeded onto 6 well plates in Stem-Span medium containing SCF (100 ng/ml) and TPO (20 ng/ml). Cells were treated with ConA (100nM) or the DMSO control and analyzed at 0, 6, 12 and 24 hour-time points by flow cytometry for HSC (LSKCD150+CD48−) frequencies or MMP-low and MMP- high HSCs frequencies or MMP (TMRE).
# [3] = tested on: MMP-low and MMP-high LT-HSCs transplanted into lethally irradiated mice; test: Competitive in vivo long-term reconstitution assay after ex vivo lysosomal inhibition; parameters: species or system mouse
# Protocol: Competitive In Vivo Long-Term Reconstitution Assay: MMP-low and MMP-high HSCs (LSKCD150^+CD48^−, LT-HSC; MMP^low/high) were FACS purified from CD45.1 mice and transplanted at the indicated dose of test cells with 2×10^5 CD45.2 bone marrow cells into lethally irradiated CD45.2 recipients (12 Gy as a split dose, 6.5 and 5.5 Gy, 4 hours apart). Donor (CD45.1) and recipient (CD45.2) mice were 8-12 weeks old. HSC frequency was determined by the limiting dilution assay (Hu & Smith, “ELDA: Extreme Limiting Dilution Analysis for Comparing Depleted and Enriched Populations in Stem Cell and Other Assays,” J. Immunol. Methods 347:7 0-78 (2009), which is hereby incorporated by reference in its entirety) based on the number of mice with […] reconstitution (CD45.1) at 16 weeks.
# To assay the effect of HSC lysosomal inhibition in a in vivo competitive long-term reconstitution assay: FACS-sorted MMP-low and -high LT-HSCs (CD45.1) were treated with Concanamycin A (ConA,40 nM) or DMSO control in 96 well plates containing StemSpan with SCF (100 ng/ml) and TPO (20 ng/ml) for 4 days, after which 50 cells from each group were mixed with 2×10^5 CD45.2 total bone marrow cells and injected into lethally irradiated CD45.2 recipients and reconstituted peripheral blood was monitored up to four months.
# [4] = aging MMP-low and MMP-high HSCs
# [5] = ConA 40 nM ex vivo 4 days, 50 cells transplanted
smiles,measurement,setting,value
"C/C=C/[C@H]1O[C@@](O)([C@@H](C)[C@H](O)[C@H](C)[C@H]2OC(=O)/C(OC)=C/C(C)=C/[C@@H](C)[C@@H](O)[C@@H](CC)[C@@H](O)[C@H](C)C/C(C)=C/C=C/[C@@H]2OC)C[C@@H](O[C@H]2C[C@@H](O)[C@H](OC(N)=O)[C@@H](C)O2)[C@@H]1C [ConA, concanamycin A]",lysosomal phenotype (LAMP2),[1],bloated lysosomal phenotype
same,mTOR co-localization with lysosomes in MMP-high HSCs,[1],lost
same,expression of Ki67 and CDK6,[1]; MMP-high HSCs,restored in ConA-treated MMP-high HSCs to the levels of the untreated MMP-low HSCs
same,"mTOR signaling (mTOR, RHEB, RAGA/B, p4EBP1) in MMP-high HSCs",[1]; almost to levels of rapamycin (40 nM)-treated HSCs,repression of mTOR signaling
same,mTOR activity in old HSCs,[1]; aging HSCs,reduced/abolished mTOR activity
same,cycling status (CDK6 staining) of aging HSCs,[1]; [4],reverted the cycling status
same,lysosomal content in old HSCs,[1]; [4],increasing lysosomal content
same,MMP in recovered cells,[2]; 12-24 hours,relative decrease of MMP
same,frequency of HSCs recovered from 24-hour in vitro culture,[2]; 24 hours,improved frequency
same,retention of the MMP-low HSC fraction,[2]; twenty-four-hour,greater retention
same,blood production in secondary transplants,[3]; 38 weeks post-initial transplantation,increased balanced blood production
same,production of lineages downstream of MMP-high HSCs,[3]; ConA 40 nM ex vivo 4 days,balanced the production of lineages
same,"increase of in vivo competitive repopulation ability, MMP-high HSCs",[3]; [5],over 90 fold
same,"increase of in vivo competitive repopulation ability, MMP-low HSCs",[3]; [5],9 fold
same,HSC self-renewal in secondary transplantations,"[3]; young HSCs, ex vivo ConA",increased HSC self-renewal
